From ChEMBL document CHEMBL6087469, “Targeting Oncogenic RET Kinase by Simultaneously Inhibiting Kinase Activity and Degrading the Protein” (J Med Chem, 2025) come the findings set out here.

Calls of active or inactive are those of the source. The calls are words filed in the database; no cut-off is given here.

The test system of data set [1] is TPC1. The data set can be described thus: Downregulation of AURKA expression in human TPC1 cells at 200 nM incubated for 24 hrs by TMT mass spectrometric proteomic analysis. It is filed as functional, cell-based.
The test system of data set [2] is TPC1. The data set can be described thus: Downregulation of CDKN1B expression in human TPC1 cells at 200 nM incubated for 24 hrs by TMT mass spectrometric proteomic analysis. It counts as functional, cell-based.
In data set [3] the test system is TPC1. Briefly: Downregulation of AURKB expression in human TPC1 cells at 200 nM incubated for 24 hrs by TMT mass spectrometric proteomic analysis. It counts as functional, cell-based.
Data set [4] relates to TPC1. The data set can be described thus: Downregulation of MKI67 expression in human TPC1 cells at 200 nM incubated for 24 hrs by TMT mass spectrometric proteomic analysis. It counts as functional, cell-based.
The test system of data set [5] is TPC1. The data set can be described thus: Downregulation of CDK2 expression in human TPC1 cells at 200 nM incubated for 24 hrs by TMT mass spectrometric proteomic analysis. It is filed as functional, cell-based.
The nature of data set [6]: AUC (0 to infinity) in mouse at 50 mg/kg, ip measured for 48 hrs by LC/MS/MS analysis. It counts as ADME, organism-based. To be noted: in vivo.
In data set [7] the test system is TPC1. Briefly: Inhibition of cell proliferation in human TPC1 cells measured after 5 days by Cell Titer Glo assay. It is filed as functional, cell-based. Conditions: time 5.0 day. On the technique in general: Cellular ATP, detected with luciferase, serves as a proxy for viable cell number.
The nature of data set [8]: Half life in mouse at 50 mg/kg, ip measured for 48 hrs by LC/MS/MS analysis. It counts as ADME, organism-based. To be noted: in vivo.
Data set [9] is described as follows: Cmax in mouse at 50 mg/kg, ip measured for 48 hrs by LC/MS/MS analysis. It is filed as ADME, organism-based. To be noted: in vivo.
Data set [10] can be described thus: Tmax in mouse at 50 mg/kg, ip measured for 48 hrs by LC/MS/MS analysis. It is filed as ADME, organism-based. To be noted: in vivo.
Data set [11] has as its system TPC1. Briefly: Induction of CCDC6-RET fusion degradation in human TPC1 cells upto 250 nM incubated for 24 hrs by immunoblotting analysis. It counts as cell-based.
The target in data set [12] is Coiled-coil domain-containing protein 6/Tyrosine-protein kinase receptor RET (Homo sapiens) (UniProt P07949+Q16204). The data set can be described thus: Inhibition of CCDC6-RET fusion kinase activity in human TPC1 cells upto 250 nM incubated for 24 hrs by immunoblotting analysis. It is filed as cell-based. (Immunoblotting shows a protein as a band on a membrane.)
Chain of Coiled-coil domain-containing protein 6/Tyrosine-protein kinase receptor RET (Homo sapiens) (P07949 29-1114 limits assumed): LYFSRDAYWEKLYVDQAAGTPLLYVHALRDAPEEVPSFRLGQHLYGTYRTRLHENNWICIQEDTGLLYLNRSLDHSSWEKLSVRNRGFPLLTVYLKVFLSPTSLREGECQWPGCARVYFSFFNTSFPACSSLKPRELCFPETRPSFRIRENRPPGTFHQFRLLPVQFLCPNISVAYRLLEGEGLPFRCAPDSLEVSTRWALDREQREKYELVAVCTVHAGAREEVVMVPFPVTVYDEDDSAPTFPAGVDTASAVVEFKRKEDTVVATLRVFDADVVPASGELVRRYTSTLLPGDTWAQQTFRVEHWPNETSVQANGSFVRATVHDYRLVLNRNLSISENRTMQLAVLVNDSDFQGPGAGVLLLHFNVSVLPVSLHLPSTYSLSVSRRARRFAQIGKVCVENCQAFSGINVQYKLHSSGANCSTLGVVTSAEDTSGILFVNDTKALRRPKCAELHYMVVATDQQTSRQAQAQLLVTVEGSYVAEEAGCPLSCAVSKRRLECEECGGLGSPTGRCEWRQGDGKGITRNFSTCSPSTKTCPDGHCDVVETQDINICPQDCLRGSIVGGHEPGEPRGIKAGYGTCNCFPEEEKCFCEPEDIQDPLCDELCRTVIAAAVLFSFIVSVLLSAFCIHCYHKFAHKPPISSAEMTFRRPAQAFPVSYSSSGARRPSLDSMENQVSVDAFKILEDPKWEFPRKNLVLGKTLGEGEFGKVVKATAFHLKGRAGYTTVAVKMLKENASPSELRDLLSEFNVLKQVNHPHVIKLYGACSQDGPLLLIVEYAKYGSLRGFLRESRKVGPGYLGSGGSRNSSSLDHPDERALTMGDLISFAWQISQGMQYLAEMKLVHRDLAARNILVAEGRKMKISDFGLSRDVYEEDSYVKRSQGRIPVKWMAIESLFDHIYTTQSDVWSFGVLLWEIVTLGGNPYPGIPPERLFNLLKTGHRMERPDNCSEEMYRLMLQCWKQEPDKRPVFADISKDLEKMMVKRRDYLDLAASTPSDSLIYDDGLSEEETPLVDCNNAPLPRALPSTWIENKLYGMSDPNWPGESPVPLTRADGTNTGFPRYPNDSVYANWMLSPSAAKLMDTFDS
Chain of Coiled-coil domain-containing protein 6/Tyrosine-protein kinase receptor RET (Homo sapiens) (Q16204 2-474 partner limits assumed): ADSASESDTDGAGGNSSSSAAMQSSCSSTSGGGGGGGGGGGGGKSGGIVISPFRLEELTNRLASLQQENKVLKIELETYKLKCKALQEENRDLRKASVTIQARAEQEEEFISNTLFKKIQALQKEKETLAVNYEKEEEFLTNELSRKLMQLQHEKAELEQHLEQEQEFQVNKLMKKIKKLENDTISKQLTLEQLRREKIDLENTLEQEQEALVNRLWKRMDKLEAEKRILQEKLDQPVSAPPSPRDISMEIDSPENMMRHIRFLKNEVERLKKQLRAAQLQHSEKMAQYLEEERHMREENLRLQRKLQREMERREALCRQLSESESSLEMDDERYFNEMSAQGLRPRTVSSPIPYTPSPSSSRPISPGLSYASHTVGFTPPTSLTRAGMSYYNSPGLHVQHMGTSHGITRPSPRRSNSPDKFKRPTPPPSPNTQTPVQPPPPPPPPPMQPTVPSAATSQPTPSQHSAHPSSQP

Regarding `COc1ccc(CN2C3CC2CN(c2ccc(-c4cc(OCC(C)(C)O)cn5ncc(C#N)c45)cn2)C3)cn1`, the outcome in data set [1], in data set [2], in [3], in [4] and in data set [5] was Active.
Regarding `COc1ccc(CN2C3CC2CN(c2ccc(-c4cc(OCCCC(=O)N5CCC(N6CCC(C#Cc7ccc(C(=O)NCC#Cc8ccc9c(c8)CN(C8CCC(=O)NC8=O)C9=O)cc7)CC6)CC5)cn5ncc(C#N)c45)cn2)C3)cn1` (stereo not drawn), the AUC(0-inf) in [6] amounted to 3670 ng·h/mL. Also, the inhibition entry in data set [7] was “Active”. This molecule also had a half-life in data set [8] of 7.3 h. Moreover, the Cmax in [9] (read-out: Cmax) was determined as 1140 ng/mL. In addition, the time of peak concentration (Tmax) in data set [10] (read-out: Tmax) turned out to be 1 h.
For the molecule `COc1ccc(CN2C3CC2CN(c2ccc(-c4cc(OCCCC(=O)NC5CC6(CCN(c7ccc(C(=O)NCCOc8ccc(C9CCC(=O)NC9=O)cc8)cc7)CC6)C5)cn5ncc(C#N)c45)cn2)C3)cn1` (stereo not drawn), the AUC in [6] (ip, 50 mg/kg, 48 h) is 2342.1 ng·h/mL. Besides, in data set [7], the inhibition result is “Active”. The same molecule came in with a t1/2 in data set [8] (ip, 50 mg/kg, 48 h) of 0.25 h. The molecule also showed a Cmax in data set [9] (ip, 50 mg/kg, 48 h) of 44.9 ng/mL. For the same molecule, the time to peak (Tmax) in [10] (ip, 50 mg/kg, 48 h) was found to be 0.17 h.
On to `COc1ccc(CN2C3CC2CN(c2ccc(-c4cc(OCCCCCCCC(=O)N5CCN(c6ccc(C(=O)NCCOc7ccc(C8CCC(=O)N(C)C8=O)cc7)cn6)CC5)cn5ncc(C#N)c45)cn2)C3)cn1` (stereo not drawn), for which the inhibition result in data set [7] and in data set [12] was “Active” each time. In [11], the outcome was inactive.

The AUC(0-inf) is the area under the concentration-time curve extrapolated to infinity. Low readings indicate low exposure, high ones high exposure. Broadly, the half-life is the time in which the quantity being followed falls by half. Read a high half-life as slow loss. One may read the Cmax as the maximum level reached in the sampled fluid or tissue. By Tmax is commonly meant the time at which the peak concentration occurs. The term AUC denotes the area under the concentration-time curve, a measure of exposure.
